Measurements: patent publication US20250099530A1, “COMPOUND FOR USE IN PREVENTING AND/OR TREATING AN INFECTION CAUSED BY SARS-COV-2” (priority 2022, published 2025)
Entries after “also recorded” stand apart in the source; their conditions may differ.

Legend:
[1] = tested on: HIV; settings: cited from earlier work
[2] = tested on: SARS-CoV-2; test: COVID-19 golden Syrian hamster model; format: in vivo; settings: for viral replication decrease in the lungs compared to vehicle / viral load and viral replication in the lungs: 10 mg/kg IP on Day 0 (t+1 h) and Day 1, lungs at 2 dpi; for viral load and viral replication in the lungs: versus untreated groups; for clinical scores and body weight change vs Day 0: 10 mg/kg IP on Day 0 (t+1 h) and Day 1, versus infected untreated group
[3] = tested on: SARS-CoV-2; settings: cited from earlier work
[4] = tested on: caspase; settings: cited from earlier work
[5] = tested on: SIV; settings: SIV-infected rhesus macaques; cited from earlier work
[6] = tested on: Vero E6/TMPRSS2 cells
[7] = tested on: SARS-CoV-2; test: Antiviral activity, full treatment: Spike staining by flow cytometry and western blot of S and N proteins in infected cells; format: cell-based, SARS-CoV-2 strain BetaCoV/France/IDF0372/2020
Experimental: A) Vero E6/TMPRSS2 cells non infected or infected with the SARS-CoV-2 at MOI 0.05 were incubated with different concentrations of QVDM-OPh (10, 25, 50, 100 μM), Vx765 (25 μM) or Remdesivir (10 μM) for 1 h, before the infection. Afterwards, the cells were cultured with drug-containing medium until the end of the experiment (Full treatment) without removing the virus from the culture. After 72 h post-infection, cells were collected and stained for mortality and infection rate analysis. The % of infection is represented in each plot of analysis.
B) Results represent the % of infection detected by the Spike protein staining in the different infected and treated cells compared to the infected untreated group. Results represent mean+/−SD of 4 independent experiments with 3 independent points for each condition separately. Statistical significance was assessed applying One-way ANOVA test followed by Dunnett's post-hoc test using GraphPad Prism software (GraphPad Software Inc., USA). (****P<0.0001).
A-B) Vero E6/TMRPSS2 cells were pre-treated with QVDM-OPh peptide or Remdesivir at the indicated concentrations for 1 h, before the infection with the virus at MOI=0.05. Afterwards, the cells were cultured with drug-containing medium until the end of the experiment (Full treatment). A well with non-infected cells was performed as a negative control of the infection. At 72 h post-infection, cells were lysed by RIPA buffer and western blot analysis was performed to detect the expression of the Spike protein (S), the full length and S1 domain, and the Nucleocapsid protein (N). GAPDH was used as loading control. Results represent mean±SD, from 4 independent experiments with 3 independent points per condition.
To evaluate the toxicity of the QVDM-OPh on Vero E6 Cells and the antiviral efficacy, the percentage of mortality and the percentage of infected cells were measured by flow cytometry. Cells were cultured overnight in 24-well cell-culture petri-dish with a density of 75×10^4 cells/well. The next day, cells were pretreated or not for 1 h with the different doses of the indicated QVDM-OPh, Vx765 or Remdesivir at different concentrations. Then, the virus was subsequently added at MOI 0.05 to allow infection for 2 h in 250 μl/well. Afterwards, complete media was added to cell culture to a final volume of 500 μl/well. Drugs were added each day at same concentration to cell culture. At 72 h post-infection, the cell supernatant was collected and frozen immediately at −80° C. for viral extraction and qRT-PCR amplification. The cells were collected and a part thereof was used to flow cytometry analysis to measure the rate of infection using an intracellular staining against Spike protein (SARS-CoV-2 Spike Protein-Alexa 647, Cat no. 51-6490-82, eBioscience) and a Cytofix/cytoperm fixation permeabilization kit (Cat no. 554714, BD) according to the manufacturer's instructions. Toxicity was analysed using Viability 405/452 Fixable Dye (Cat no. 130-109-814, from Miltenyi Biotec) according to the manufacturer's instructions. […] After the staining, the cells were fixed with 2% Paraformaldehyde (FPA) and then analyzed on a Fortessa Flow Cytometer. 30 000 events were recorded for each condition in triplicate. […] The other part of the cells was lysed in RIPA lysis buffer (Invitrogen, Cat no. 10230544) containing protease (Roche) and phosphatase inhibitors (Invitrogen) for further quantification and immunoblotting analysis, or in LBP buffer for RNA purification and RT-qPCR analysis. […]

[8] = tested on: SARS-CoV-2; test: Virus yield in infected cell supernatants by qRT-PCR (N and NSP6 genes); format: cell-based, SARS-CoV-2 strain BetaCoV/France/IDF0372/2020
[9] = tested on: SARS-CoV-2; test: Intracellular qRT-PCR of SARS-CoV-2 S, N and NSP6 genes in infected cells, full treatment; format: cell-based, SARS-CoV-2 strain BetaCoV/France/IDF0372/2020; settings: 72 h post-infection, normalized to GAPDH
[10] = Severe acute respiratory syndrome coronavirus 2, 72 h, read-out: inhibition of the viral replication
[11] = full treatment, 72 h post-infection

Structure (SMILES) | HIV viral replication [1] | viral replication decrease in the lungs compared to vehicle [2] [%] | viral load and viral replication in the lungs [2] | clinical scores and body weight change vs Day 0 [2] | control of an in vitro infection caused by SARS-CoV-2 [3] | toxicity ([3]; in vitro) | caspase inhibitory activity [4] | AIDS disease progression [5] | toxicity ([6]; 25 μM and 50 μM) | toxicity effect on Vero E6/TMPRSS2 cells ([6]; different concentrations (25, 50, 100 μM each day), cells infected or not at MOI 0.05, 72 h post-infection) | control of SARS-CoV-2 infection in vitro ([7]; 25 μM and 50 μM) | inhibition at 10 µM [7, 10] [%] | inhibition at 25 µM [7, 10] [%] | inhibition at 50 µM [7, 10] [%] | reduction of viral replication compared with Remdesivir [7, 11] | SARS-CoV-2 in the supernatant (N and NSP6 gene qRT-PCR) [8, 11] | inhibition of secretion/production of the virus from the cell to the media, compared with QVD-OPh ([8]; identical concentration, full treatment and post-entry (FIGS. 5 and 9)) | relative expression of the Spike, Nucleocapsid and NSP6 genes inside the cells [9]
CC(C)C(NC(=O)c1ccc2ccccc2n1)C(=O)NC(CCC(=O)O)C(=O)COc1c(F)cccc1F (stereo not shown) [QVE-OPh] | same anti-viral effect | 52 | significant reduction | encouraging results | highly effective | without any toxicity | no caspase inhibitory activity |  |  |  |  |  |  |  |  |  |  | 
CC(C)C(NC(=O)c1ccc2ccccc2n1)C(=O)NC(CC(=O)O)C(=O)COc1c(F)cccc1F (stereo not shown) [QVD-OPh] | inhibits also the viral replication; also recorded: same anti-viral effect |  |  |  |  |  | broad caspase inhibitor | AIDS disease progression is prevented |  |  |  |  |  |  |  |  |  | 
COC(=O)CC(NC(=O)C(NC(=O)c1ccc2ccccc2n1)C(C)C)C(=O)COc1c(F)cccc1F (stereo not shown) [QVDM-OPh] | same anti-viral effect | 70 | significant reduction | encouraging results |  |  | pan-caspase inhibitor |  | without any toxicity | no toxicity effect | highly effective | ~50 | ~70 | ~99 | comparable | significantly reduce | more efficiently than QVD-OPh | reduce significantly
